Square brackets hold non-standard residues; d marks the D form. Peptide text beside a SMILES is read from it. * marks the point of attachment. Dolaproine = CO[C@@H]([C@@H]1CCCN1)[C@@H](C)C(=O)O; Dil = CC[C@H](C)[C@H](NC)[C@@H](CC(=O)O)OC; X1 = C[C@@H](N*)[C@@H](O)c1ccccc1; NMeV = CN[C@H](C(=O)O)C(C)C
Experiments:
CYP3A = settings: in vivo and in vitro studies; cited from earlier work
From the text: The PBPK model of MMAE presented here can further be used to assess drug–drug interactions of MMAE containing ADCs. In vivo and in vitro studies indicate that MMAE is a substrate of CYP3A and P-glycoprotein [34]. As such, the polymorphism of CYP3A and P-glycoprotein may affect the PK of MMAE, and consequently the efficacy and toxicity of MMAE-conjugated ADCs. As such, the MMAE PBPK model can serve as a tool to explore drug interactions of ADCs.

tumor cells = test: Cell-level tumor disposition model parameters; set-up: species or system mice; settings: Estimated by PBPK model
From the text: Characterization and prediction of MMAE concentration at the site of action (i.e., tumor) is essential to establish a reliable exposure–efficacy relationship. Therefore, a cell-level tumor disposition model was incorporated in the MMAE PBPK model. […] Both pathways also depended on the vascular density and tumor size (Equation (20)). MMAE in the tumor extracellular space can influx into the tumor cell and bind to the tubulin. The tubulin-bound MMAE can dissociate from the target and efflux from tumor intracellular space into the extracellular space.
Physiological parameters for mice were obtained from our previously published PBPK model. Radius of the tumor blood capillary ( Rcap ), average distance between two capillaries ( Rkrough ), tumor void volume for MMAE ( ε ), P, D, and efflux rate of MMAE from the cells ( kout ) were obtained from the literature. […] The estimated parameters included (1) permeability coefficient ( PSi) in all tissues except the intestines, thymus, and other compartments for which observed data were not available, (2) intrinsic hepatic clearance ( CLint ), and (3) nonspecific uptake rate of MMAE into cancer cells ( kin) . The model was fitted to the data using the maximum likelihood estimation method in ADAPT version 5 (Biomedical Simulations Resource, University of Southern California, Los Angeles, CA, USA), using the variance model shown in Equation (23). […]

P-glycoprotein = settings: cited from earlier work
From the text: Concentration data were not obtained for gastrointestinal tracts and thymus, and thus, an assumption was made when calculating KP values for these tissues based on the result of a quantitative whole-body autoradiography study of trastuzumab-vc-MMAE in rats. The study observed persistent MMAE radioactivity in tissues with rapidly dividing cells such as GI epithelia, bone marrow, spleen, and thymus. Accordingly, apparent KP in GI tracts and thymus were assumed to be the same as in spleen, and they were adjusted for the fractional cellular volume of each tissue. KP values were >1 in all tis ... || The PBPK model of MMAE presented here can further be used to assess drug–drug interactions of MMAE containing ADCs. In vivo and in vitro studies indicate that MMAE is a substrate of CYP3A and P-glycoprotein [34]. As such, the polymorphism of CYP3A and P-glycoprotein may affect the PK of MMAE, and consequently the efficacy and toxicity of MMAE-conjugated ADCs. As such, the MMAE PBPK model can serve as a tool to explore drug interactions of ADCs.

[1] = Derivation of in vivo CLint (in vitro-in vivo extrapolation; NCA with well-stirred model); settings: mice, 0.1 mg/kg i.v.
[2] = following free MMAE administration; cited from earlier work
From the text: Our results regarding the blood cell distribution of MMAE were not consistent with the literature. The MMAE blood-to-plasma ratio is reported to be 2 [4] and 1.53–8.65 [8] in different studies, following free MMAE administration. Whereas, a lower blood-to-plasma ratio has been observed when MMAE-conjugated ADCs were administrated.

tubulin = settings: cited from earlier work
From the text: Table 1 A glossary of literature-derived and estimated parameters used for the MMAE PBPK model. | column: Value || Physiological parameters for mice were obtained from our previously published PBPK model. Radius of the tumor blood capillary ( Rcap ), average distance between two capillaries ( Rkrough ), tumor void volume for MMAE ( ε ), P, D, and efflux rate of MMAE from the cells ( kout ) were obtained from the literature.

Q: What does the source list for `CC[C@H](C)[C@@H]([C@@H](CC(=O)N1CCC[C@H]1[C@H](OC)[C@@H](C)C(=O)N[C@H](C)[C@@H](O)c1ccccc1)OC)N(C)C(=O)[C@@H](NC(=O)[C@@H](NC)C(C)C)C(C)C` [MMAE, Monomethyl auristatin E] (H-[NMeV]V[Dil][Dolaproine]-X1)?
A: substrate of CYP3A (CYP3A): substrate; kin, first-order influx rate of MMAE from extracellular to intracellular space (tumor cells): 0.185 h⁻¹; substrate of P-glycoprotein (P-glycoprotein): substrate; CLint derived from NCA analysis of in vivo PK data [1]: 150 mL/h; blood-to-plasma ratio [2]: 2; koff, first-order dissociation rate constant between MMAE–tubulin complex (tubulin; assumed): 0.545 h⁻¹; Kd (tubulin; read-out: equilibrium dissociation rate (KD) of MMAE for free tubulin): 291 nM
